Test results published in ChEMBL document CHEMBL6153141, “Design, Synthesis, and Mechanism Study of Novel BMX Inhibitors Based on the Core of 1,3,5-Triazin-2-Amine for the Treatment of Gastric Carcinoma” (J Med Chem, 2025).
Active and inactive are the calls of the source. The calls are words filed in the database; no cut-off is given here.

Legend:
[1] = test system: A549; assay: cells; settings: Homo sapiens, A549, 72 h
Description: Anticancer activity against human A549 cells assessed as inhibition of cell proliferation incubated for 72 hrs by MTT assay

[2] = test system: CWR22R; assay: cells; settings: Homo sapiens, 22Rv1, 72 h
Description: Anticancer activity against human 22Rv1 cells assessed as inhibition of cell proliferation incubated for 72 hrs by MTT assay

[3] = test system: NCI-H460; assay: cells; settings: Homo sapiens, NCI-H460, 72 h
Description: Anticancer activity against human NCI-H460 cells assessed as inhibition of cell proliferation incubated for 72 hrs by MTT assay

[4] = test system: HCC827; assay: cells; settings: Homo sapiens, HCC827, 72 h
Description: Anticancer activity against human HCC827 cells assessed as inhibition of cell proliferation incubated for 72 hrs by MTT assay

[5] = test system: DU-145; assay: cells; settings: Homo sapiens, DU-145, 72 h
Description: Anticancer activity against human DU-145 cells assessed as inhibition of cell proliferation incubated for 72 hrs by MTT assay

[6] = test system: NCI-H1975; assay: cells; settings: Homo sapiens, NCI-H1975, 72 h
Description: Anticancer activity against human NCI-H1975 cells assessed as inhibition of cell proliferation incubated for 72 hrs by MTT assay

[7] = test system: PC-3; assay: cells; settings: Homo sapiens, PC-3, 72 h
Description: Anticancer activity against human PC-3 cells assessed as inhibition of cell proliferation incubated for 72 hrs by MTT assay

[8] = test system: PC-9; assay: cells; settings: Homo sapiens, PC-9, 72 h
Description: Anticancer activity against human PC-9 cells assessed as inhibition of cell proliferation incubated for 72 hrs by MTT assay

[9] = test system: HONE1 cell line; assay: Anticancer activity against human HONE1 cell line assessed as inhibition of cell proliferation incubated for 72 hrs by MTT assay; assay type: functional, cell-based; settings: HONE1, 72 h
[10] = test system: MCF7; assay: Anticancer activity against human MCF7 cells assessed as inhibition of cell proliferation incubated for 72 hrs by MTT assay; assay type: functional, cell-based; settings: MCF7, 72 h
[11] = test system: AGS; assay: Anticancer activity against human AGS cells assessed as inhibition of cell proliferation incubated for 72 hrs by MTT assay; assay type: functional, cell-based
[12] = test system: MDA-MB-231; assay: Anticancer activity against human MDA-MB-231 cells assessed as inhibition of cell proliferation incubated for 72 hrs by MTT assay; assay type: functional, cell-based; settings: MDA-MB-231, 72 h
[13] = test system: MGC-803; assay: Anticancer activity against human MGC-803 cells assessed as inhibition of cell proliferation incubated for 72 hrs by MTT assay; assay type: functional, cell-based; settings: MGC-803, 72 h
[14] = test system: HeLa; assay: Anticancer activity against human HeLa cells assessed as inhibition of cell proliferation incubated for 72 hrs by MTT assay; assay type: functional, cell-based
[15] = Cytotoxicity against HEK293 cells assessed as inhibition of cell proliferation incubated for 72 hrs by MTT assay; assay type: toxicity, cell-based; settings: human
[16] = test system: HCT-116; assay: Anticancer activity against human HCT-116 cells assessed as inhibition of cell proliferation incubated for 72 hrs by MTT assay; assay type: functional, cell-based; settings: HCT-116, 72 h
[17] = test system: C6661; assay: Anticancer activity against human C666-1 cells assessed as inhibition of cell proliferation incubated for 72 hrs by MTT assay; assay type: functional, cell-based; settings: C6661, 72 h
[18] = test system: 4T1; assay: Anticancer activity against mouse 4T1 cells assessed as inhibition of cell proliferation incubated for 72 hrs by MTT assay; assay type: functional, cell-based; settings: 4T1, 72 h
[19] = Cytotoxicity against human L02 cells assessed as inhibition of cell proliferation incubated for 72 hrs by MTT assay; assay type: toxicity, cell-based
[20] = test system: HepG2; assay: Anticancer activity against human HepG2 cells assessed as inhibition of cell proliferation incubated for 72 hrs by MTT assay; assay type: functional, cell-based; settings: HepG2, 72 h
[21] = Cytotoxicity against H9c2 cells assessed as inhibition of cell proliferation incubated for 72 hrs by MTT assay; assay type: toxicity, cell-based; settings: rat
[22] = test system: HGC-27; assay: Anticancer activity against human HGC-27 cells assessed as inhibition of cell proliferation incubated for 72 hrs by MTT assay; assay type: functional, cell-based; settings: HGC-27, 72 h
[23] = Cytotoxicity against human GES1 cells assessed as inhibition of cell proliferation incubated for 72 hrs by MTT assay; assay type: toxicity, cell-based
[24] = test system: HGC-27; assay: Antitumor activity against human HGC-27 cells xenografted in female BALB/c nude mouse model assessed as reduction in tumor weight at 15 mg/kg/day, ip administered for 21 days; assay type: functional, organism-based; settings: time 21.0 day
[25] = test system: HGC-27; assay: Antitumor activity against human HGC-27 cells xenografted in female BALB/c nude mouse model assessed as reduction in tumor growth at 15 mg/kg/day, ip administered for 21 days relative to control; assay type: functional; parameters: scale not given: the % may be the effect or the level left; settings: time 21 day
[26] = molecular target: Tyrosine-protein kinase BTK (Homo sapiens, UniProt Q06187); assay: Inhibition of BTK (unknown origin)
Chain of Tyrosine-protein kinase BTK (Q06187 whole entry): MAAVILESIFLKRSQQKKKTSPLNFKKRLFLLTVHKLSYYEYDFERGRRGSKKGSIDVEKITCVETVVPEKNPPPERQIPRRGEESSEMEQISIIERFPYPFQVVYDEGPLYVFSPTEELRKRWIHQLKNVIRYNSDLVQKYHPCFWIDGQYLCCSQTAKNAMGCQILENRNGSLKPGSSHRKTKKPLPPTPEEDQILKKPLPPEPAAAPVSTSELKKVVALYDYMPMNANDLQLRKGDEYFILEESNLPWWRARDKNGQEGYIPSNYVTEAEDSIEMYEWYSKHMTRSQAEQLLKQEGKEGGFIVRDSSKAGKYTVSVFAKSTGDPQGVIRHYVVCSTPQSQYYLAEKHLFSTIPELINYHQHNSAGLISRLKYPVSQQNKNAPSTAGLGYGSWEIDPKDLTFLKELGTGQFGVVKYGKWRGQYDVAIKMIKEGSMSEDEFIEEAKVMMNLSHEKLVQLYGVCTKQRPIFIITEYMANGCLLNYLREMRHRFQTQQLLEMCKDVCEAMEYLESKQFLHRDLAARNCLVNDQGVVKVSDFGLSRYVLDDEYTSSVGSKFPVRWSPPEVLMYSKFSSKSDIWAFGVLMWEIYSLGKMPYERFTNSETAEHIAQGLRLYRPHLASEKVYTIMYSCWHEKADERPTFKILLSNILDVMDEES

Row | Compound | IC50 [1] | IC50 [2] | IC50 [3] | IC50 [4] | IC50 [5] | IC50 [6] | IC50 [7] | IC50 [8] | other results
1 | C=CS(=O)(=O)N1CCC[C@@H](Nc2nc(N)nc(Nc3ccc(OCc4ccccc4)cc3)n2)C1 | > 32 µM | > 32 µM | > 32 µM | > 32 µM | 19 µM | > 32 µM | > 32 µM | > 32 µM | –
2 | C=CS(=O)(=O)N1CCC[C@@H](Nc2nc(N)nc(Nc3cccc(OCc4ccccc4)c3)n2)C1 | 25 µM | 23.7 µM | 14.3 µM | 3 µM | 9.7 µM | 4.3 µM | 18.6 µM | 21.9 µM | IC50 [9]: 14 µM; IC50 [10]: 18.4 µM; IC50 [11]: 9.2 µM; IC50 [12]: 12.1 µM; IC50 [13]: 13.4 µM; IC50 [14]: 14.5 µM; IC50 at 72 h [15]: > 32 µM; IC50 [16]: 19.6 µM; IC50 [17]: 18.9 µM; IC50 [18]: 17.5 µM; IC50 at 72 h [19]: > 32 µM; IC50 [20]: > 32 µM; IC50 at 72 h [21]: > 32 µM; IC50 [22]: 15.6 µM; IC50 at 72 h [23]: 13.9 µM
3 | C=CS(=O)(=O)N1CCC(CNc2nc(N)nc(Nc3ccc(Oc4ccccc4)cc3)n2)CC1 | > 32 µM | > 32 µM | > 32 µM | 29.3 µM | > 32 µM | > 32 µM | > 32 µM | > 32 µM | –
4 | C=CS(=O)(=O)N1CC[C@@H](Nc2nc(N)nc(Nc3ccc(Oc4ccccc4)cc3)n2)C1 | > 32 µM | > 32 µM | > 32 µM | 12.6 µM | 22.4 µM | > 32 µM | > 32 µM | > 32 µM | –
5 | C=CC(=O)N1CCC[C@@H](n2nc(-c3ccc(Oc4ccccc4)cc3)c3c(N)ncnc32)C1 [IBRUTINIB] | 17.6 µM | 26.7 µM | 12.7 µM | 0.1 µM | 5.3 µM | 5.6 µM | 21.1 µM | 3.1 µM | IC50 [9]: 24.5 µM; IC50 [10]: 29.9 µM; IC50 [11]: 10.4 µM; IC50 [12]: 28.9 µM; IC50 [13]: 9.2 µM; IC50 [14]: 28.1 µM; IC50 at 72 h [15]: > 32 µM; IC50 [16]: 17.7 µM; IC50 [17]: 17 µM; IC50 [18]: 9.3 µM; Activity [24]: Active; IC50 at 72 h [19]: > 32 µM; IC50 [20]: > 32 µM; IC50 at 72 h [21]: > 32 µM; Activity [25]: 17.03%; IC50 [22]: 16 µM; IC50 at 72 h [23]: 28.6 µM
6 | Cn1cc(Nc2nc(N)nc(-c3cccc(-n4ccc5cc(C6CC6)ccc5c4=O)c3CO)n2)cn1 | – | – | – | – | – | – | – | – | IC50 [26]: 0.0042 µM
7 | C=CS(=O)(=O)N1CCC[C@@H](Nc2nc(N)nc(Nc3ccc(Oc4ccccc4)cc3)n2)C1 | > 32 µM | > 32 µM | > 32 µM | 5.2 µM | > 32 µM | 29.8 µM | > 32 µM | > 32 µM | –
